The subject of this assay is T1, EstATII-TM (EstATII, A126V).
T1 construct: full ORF (945 bp) in pET-SUMO, His-tagged SUMO fusion, E. coli BL21(DE3), Ni column; 55 kDa; tag cleavage not mentioned; KC958722 is the wild-type nucleotide record; tested form carries A126V
In words: p-nitrophenol release at […] nm, nonlinear Michaelis-Menten fit. The note with it: 30 °C, pH 7.5; substrate range 0.01-1 mM; no added metal; Table 1 prints 0.03 (±0.01) μmol; unit doubtful (substrate range suggests mM). Format: biochemical, uncultured bacterium.

The structures appear in SMILES notation.

For the molecule `CCCC(=O)Oc1ccc([N+](=O)[O-])cc1` [p-nitrophenyl butyrate], the Km (in general, the substrate concentration at which the rate is half of its maximum) turned out to be 0.0303 mM.

Source of the values: PMC9144027, “Evaluation of a Thermophilic, Psychrostable, and Heavy Metal-Resistant Red Sea Brine Pool Esterase” (Marine Drugs, 2022).
